Laboratory results published in ChEMBL document CHEMBL1143316, “Japonicones A-D, bioactive dimeric sesquiterpenes from Inula japonica Thunb” (Bioorg Med Chem Lett, 2009).
In brackets after ≈: the same amount, converted by molar mass.

Tests used:
Type in all cases: functional, cell-based
LoVo = test: Cytotoxicity against human LoVo cells by MTT assay
A549 = test: Cytotoxicity against human A549 cells by MTT assay
CCRF-CEM = test: Cytotoxicity against human CEM cells by MTT assay
MDA-MB-435 = test: Cytotoxicity against human MDA-MB-435 cells by MTT assay

C=C1C(=O)O[C@@H]2C[C@@H](C)[C@]34C[C@]5(C(=O)O[C@H]6C[C@@]7(C)C(=C[C@H]65)[C@H](C)CC[C@@H]7O)[C@H](C(C)=C3C[C@@H]12)[C@@H]4OC(C)=O [JAPONICONE A]
IC50 (LoVo): 0.256 µg/mL (≈ 0.477 µM)
IC50 (A549): 1.62 µg/mL (≈ 3.02 µM)
IC50 (CCRF-CEM): 0.001 µg/mL (≈ 0.00186 µM)
IC50 (MDA-MB-435): 0.198 µg/mL (≈ 0.369 µM)
